Experimental data as given in US20230085307A1, “PYRIDAZINONE COMPOUND AND HERBICIDE” (NISSAN CHEMICAL CORPORATION, priority 2019, published 2023).

Key:
chickweed [1] = test: Test Example 5: herbicidal effect by foliage application, plastic box (Table 20, symbol P); format: in vivo, common chickweed (Stellaria media); details: foliage application, 320 g/ha, three weeks after application
Outline: (§1)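 Sow seeds spot-wise in sterilized diluvial soil; cover with ~1.5 cm soil. Grow 14 days in greenhouse, 25° C. to 30° C. Spray foliage with emulsion diluted to predetermined amount. Rate effect after 3 weeks.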

rice flat sedge = test: Test Example 3: herbicidal effect by foliage application, Wagner pot (Table 18, symbol E); format: in vivo, rice flat sedge (Cyperus iria); details: 320 g/ha
Outline: (§2)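 Plants were sown in alluvial soil held under 0.1–0.5 cm standing water and grown 14 days in a greenhouse at 25–30 °C. An emulsifiable formulation, water-diluted to the set dose, was then sprayed onto the foliage, and effects were scored three weeks later using previously defined criteria.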

velvetleaf [2] = test: Test Example 4: herbicidal effect by soil treatment (Table 19, symbol M); format: in vivo, velvetleaf (Abutilon theophrasti); details: amount of applied herbicide 320 g/ha
Outline: (§3)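 Soil-surface application: an emulsion agent diluted with water to the predetermined dose is sprayed uniformly over seeds lying under roughly 1.5 cm of sterilized diluvial soil. Boxes stay in a greenhouse at 25° C. to 30° C. Three weeks later, each species is graded on previously defined criteria.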

southern crabgrass [3] = test: Test Example 5: herbicidal effect by foliage application, plastic box (Table 20, symbol F); format: in vivo, southern crabgrass (Digitaria ciliaris); details: foliage application, 320 g/ha, three weeks after application
Outline: as §1

Italian ryegrass [4] = test: Test Example 4: herbicidal effect by soil treatment (Table 19, symbol K); format: in vivo, Italian ryegrass (Lolium multiflorum); details: amount of applied herbicide 320 g/ha
Outline: as §3

windgrass [5] = test: Test Example 4: herbicidal effect by soil treatment (Table 19, symbol L); format: in vivo, windgrass (Apera spica-venti); details: amount of applied herbicide 320 g/ha
Outline: as §3

windgrass [6] = test: Test Example 5: herbicidal effect by foliage application, plastic box (Table 20, symbol L); format: in vivo, windgrass (Apera spica-venti); details: foliage application, 320 g/ha, three weeks after application
Outline: as §1

barnyard grass [7] = test: Test Example 3: herbicidal effect by foliage application, Wagner pot (Table 18, symbol H); format: in vivo, barnyard grass (Echinochloa crus-galli); details: 320 g/ha
Outline: as §2

redroot pigweed [8] = test: Test Example 5: herbicidal effect by foliage application, plastic box (Table 20, symbol N); format: in vivo, redroot pigweed (Amaranthus retroflexus); details: foliage application, 320 g/ha, three weeks after application
Outline: as §1

barnyard grass [9] = test: Test Example 5: herbicidal effect by foliage application, plastic box (Table 20, symbol H); format: in vivo, barnyard grass (Echinochloa crus-galli); details: foliage application, 320 g/ha, three weeks after application
Outline: as §1

persian speedwell [10] = test: Test Example 4: herbicidal effect by soil treatment (Table 19, symbol R); format: in vivo, Persian speedwell (Veronica persica); details: amount of applied herbicide 320 g/ha
Outline: as §3

persian speedwell [11] = test: Test Example 5: herbicidal effect by foliage application, plastic box (Table 20, symbol R); format: in vivo, Persian speedwell (Veronica persica); details: foliage application, 320 g/ha, three weeks after application
Outline: as §1

southern crabgrass [12] = test: Test Example 4: herbicidal effect by soil treatment (Table 19, symbol F); format: in vivo, southern crabgrass (Digitaria ciliaris); details: amount of applied herbicide 320 g/ha
Outline: as §3

green foxtail [13] = test: Test Example 5: herbicidal effect by foliage application, plastic box (Table 20, symbol G); format: in vivo, green foxtail (Setaria viridis); details: foliage application, 320 g/ha, three weeks after application
Outline: as §1

redroot pigweed [14] = test: Test Example 4: herbicidal effect by soil treatment (Table 19, symbol N); format: in vivo, redroot pigweed (Amaranthus retroflexus); details: amount of applied herbicide 320 g/ha
Outline: as §3

velvetleaf [15] = test: Test Example 5: herbicidal effect by foliage application, plastic box (Table 20, symbol M); format: in vivo, velvetleaf (Abutilon theophrasti); details: foliage application, 320 g/ha, three weeks after application
Outline: as §1

lambsquarters [16] = test: Test Example 5: herbicidal effect by foliage application, plastic box (Table 20, symbol O); format: in vivo, lambsquarters (Chenopodium album); details: foliage application, 320 g/ha, three weeks after application
Outline: as §1

Chinese sprangletop = test: Test Example 3: herbicidal effect by foliage application, Wagner pot (Table 18, symbol D); format: in vivo, chinese sprangletop (Leptochloa chinensis); details: 320 g/ha
Outline: as §2

green foxtail [17] = test: Test Example 4: herbicidal effect by soil treatment (Table 19, symbol G); format: in vivo, green foxtail (Setaria viridis); details: amount of applied herbicide 320 g/ha
Outline: as §3

wild oat [18] = test: Test Example 5: herbicidal effect by foliage application, plastic box (Table 20, symbol I); format: in vivo, wild oat (Avena fatua); details: foliage application, 320 g/ha, three weeks after application
Outline: as §1

wild oat [19] = test: Test Example 4: herbicidal effect by soil treatment (Table 19, symbol I); format: in vivo, wild oat (Avena fatua); details: amount of applied herbicide 320 g/ha
Outline: as §3

blackgrass [20] = test: Test Example 4: herbicidal effect by soil treatment (Table 19, symbol J); format: in vivo, blackgrass (Alopecurus myosuroides); details: amount of applied herbicide 320 g/ha
Outline: as §3

Italian ryegrass [21] = test: Test Example 5: herbicidal effect by foliage application, plastic box (Table 20, symbol K); format: in vivo, Italian ryegrass (Lolium multiflorum); details: foliage application, 320 g/ha, three weeks after application
Outline: as §1

chickweed [22] = test: Test Example 4: herbicidal effect by soil treatment (Table 19, symbol P); format: in vivo, common chickweed (Stellaria media); details: amount of applied herbicide 320 g/ha
Outline: as §3

blackgrass [23] = test: Test Example 5: herbicidal effect by foliage application, plastic box (Table 20, symbol J); format: in vivo, blackgrass (Alopecurus myosuroides); details: foliage application, 320 g/ha, three weeks after application
Outline: as §1

lambsquarters [24] = test: Test Example 4: herbicidal effect by soil treatment (Table 19, symbol O); format: in vivo, lambsquarters (Chenopodium album); details: amount of applied herbicide 320 g/ha
Outline: as §3

barnyard grass [25] = test: Test Example 4: herbicidal effect by soil treatment (Table 19, symbol H); format: in vivo, barnyard grass (Echinochloa crus-galli); details: amount of applied herbicide 320 g/ha
Outline: as §3

CCOc1ccc(-c2sc3ccccc3c2-c2c(O)c(C)nn(C)c2=O)cn1 [1-076]
herbicidal effect grade, P: chickweed (chickweed [1]): 5 (Herbicidal rate of 90% or more (almost completely withered))
herbicidal effect on E (rice flat sedge), rating 0-5 (rice flat sedge): 5 (Herbicidal rate of 90% or more (almost completely withered))
herbicidal effect rating, M: velvetleaf (velvetleaf [2]): 0 (Herbicidal rate of 5% or less (almost no effect))
herbicidal effect grade, F: southern crabgrass (southern crabgrass [3]): 0 (Herbicidal rate of 5% or less (almost no effect))
herbicidal effect rating, K: Italian ryegrass (Italian ryegrass [4]): 0 (Herbicidal rate of 5% or less (almost no effect))
herbicidal effect rating, L: windgrass (windgrass [5]): 0 (Herbicidal rate of 5% or less (almost no effect))
herbicidal effect grade, L: windgrass (windgrass [6]): 0 (Herbicidal rate of 5% or less (almost no effect))
herbicidal effect on H (barnyard grass), rating 0-5 (barnyard grass [7]): 1 (Herbicidal rate of 5% or more and less than 20%)
herbicidal effect grade, N: redroot pigweed (redroot pigweed [8]): 2 (Herbicidal rate of 20% or more and less than 40%)
herbicidal effect grade, H: barnyard grass (barnyard grass [9]): 0 (Herbicidal rate of 5% or less (almost no effect))
herbicidal effect rating, R: persian speedwell (persian speedwell [10]): 5 (Herbicidal rate of 90% or more (almost completely withered))
herbicidal effect grade, R: persian speedwell (persian speedwell [11]): 5 (Herbicidal rate of 90% or more (almost completely withered))
herbicidal effect rating, F: southern crabgrass (southern crabgrass [12]): 0 (Herbicidal rate of 5% or less (almost no effect))
herbicidal effect grade, G: green foxtail (green foxtail [13]): 0 (Herbicidal rate of 5% or less (almost no effect))
herbicidal effect rating, N: redroot pigweed (redroot pigweed [14]): 0 (Herbicidal rate of 5% or less (almost no effect))
herbicidal effect grade, M: velvetleaf (velvetleaf [15]): 3 (Herbicidal rate of 40% or more and less than 70%)
herbicidal effect grade, O: lambsquarters (lambsquarters [16]): 1 (Herbicidal rate of 5% or more and less than 20%)
herbicidal effect on D (Chinese sprangletop), rating 0-5 (Chinese sprangletop): 0 (Herbicidal rate of 5% or less (almost no effect))
herbicidal effect rating, G: green foxtail (green foxtail [17]): 1 (Herbicidal rate of 5% or more and less than 20%)
herbicidal effect grade, I: wild oat (wild oat [18]): 0 (Herbicidal rate of 5% or less (almost no effect))
herbicidal effect rating, I: wild oat (wild oat [19]): 0 (Herbicidal rate of 5% or less (almost no effect))
herbicidal effect rating, J: blackgrass (blackgrass [20]): 0 (Herbicidal rate of 5% or less (almost no effect))
herbicidal effect grade, K: Italian ryegrass (Italian ryegrass [21]): 1 (Herbicidal rate of 5% or more and less than 20%)
herbicidal effect rating, P: chickweed (chickweed [22]): 5 (Herbicidal rate of 90% or more (almost completely withered))
herbicidal effect grade, J: blackgrass (blackgrass [23]): 0 (Herbicidal rate of 5% or less (almost no effect))
herbicidal effect rating, O: lambsquarters (lambsquarters [24]): 0 (Herbicidal rate of 5% or less (almost no effect))
herbicidal effect rating, H: barnyard grass (barnyard grass [25]): 0 (Herbicidal rate of 5% or less (almost no effect))
